The values that follow are results of earlier work, collected in PMC9546217, “Exploring novel nitrofuranyl sulfonohydrazides as anti‐Leishmania and anti‐cancer agents: Synthesis, in vitro efficacy and hit identification” (Chemical Biology & Drug Design, 2022).

Each structure is given as a SMILES string.

Series [1] concerns Bacillus subtilis (ATCC 6633). On the set-up: method as in Alsaeedi et al., [2015]. To be noted: diffusion method; ref Alsaeedi et al., [2015]; cited from earlier work.
For series [2], the system named is Salmonella susi (ATTC 13070). On the set-up: method as in Alsaeedi et al., [2015]. The conditions noted are these: diffusion method; ref Alsaeedi et al., [2015]; cited from earlier work.

For the compound `Cc1ccc(S(=O)(=O)N/N=C/c2ccc([N+](=O)[O-])o2)cc1` [2c, (E)-4-Methyl-N'-[(5-nitrofuran-2-yl)methylene]benzenesulfonohydrazide], in series [1], the “antimicrobial activity (inhibition zone)” value is “no activity”. For the same compound, the inhibition zone in series [2] was 20 mm.
